Values joined by “and” are separate entries in the source; they are usually repeats but may differ in a detail not shown here. Equal values may be shown once.
System: eIF2-GTP-Met-tRNAi ternary complex
Experiment: Ternary complex assay (dual luciferase, firefly/renilla ratio) in stable KLN-tTA/pBISA-DL(ATF-4) cells; HTS and hit confirmation
Assay type: cell-based, mouse
Design: Activity 10 uM / Activity 2.5 uM / Activity 5 uM: unit not given here
Conditions: for Activity 2.5 uM: compound at 2.5 uM; for Activity 2.5 uM / Activity 10 uM / Activity 5 uM: confirmed hits of the screen (Table 5); for Activity 10 uM: compound at 10 uM; for Activity 5 uM: compound at 5 uM; for Effect on firefly/renilla luciferase ratio: KLN-tTA/pBISA-DL(ATF-4) colonies, assay validation

Compound | Activity 2.5 uM | Activity 10 uM | Activity 5 uM | Effect on firefly/renilla luciferase ratio
O=c1n(-c2ccc(Cl)c(Cl)c2)c(=O)n(-c2ccc(Cl)c(Cl)c2)c(=O)n1-c1ccc(Cl)c(Cl)c1 [Compound 664259] | 2.76 | 4.24 | – | –
Cc1nc2ccc(Br)cc2c(=O)n1-c1ccc(NC2OC(CO)C(O)C(O)C2O)cc1 (centres unmarked) [Compound 665512] | 0.47 | 15.46 | – | –
c1cc(-c2ncc(-c3ccc4c(c3)CCCO4)o2)ccn1 [Compound 665702] | 1.79 | 3.38 | – | –
Cc1ccc(S(=O)(=O)n2c3c(c4ccccc42)CCN2C(=O)C(S(=O)(=O)c4ccccc4)=CCC32)cc1 (centres unmarked) [Compound 665910] | 0.72 | 4.69 | – | –
N#Cc1c(N)nc([Se]CC(=O)c2ccc(Cl)cc2)c(C#N)c1-c1ccco1 [Compound 666131] | 4.12 | 8.72 | – | –
COc1ccc(/C=N/Nc2nc3ccccc3c(=O)n2-c2ccccc2)cc1 [Compound 666356] | 2.43 | 30.26 | – | –
COc1ccc(C2Oc3c(cccc3OC)C=C2[N+](=O)[O-])cc1 (centres unmarked) [Compound 667223] | – | 6.01 and 8.726 | – | –
COc1cccc2c1OC(c1ccc(C#N)cc1)C([N+](=O)[O-])=C2 (centres unmarked) [Compound 667226] | 0.34 | 4.79 | – | –
S=C1CC(c2ccccc2)Sc2ccccc2N1 (centres unmarked) [Compound 667463] | 3.13 | 3.45 | – | –
O=[N+]([O-])C1=Cc2cc(Cl)ccc2OC1c1cccc2ccccc12 (centres unmarked) [Compound 667472] | 0.35 | 9.48 | – | –
Cc1cccc(/C=N\NC(=S)N2CCCCC2)n1 [Compound 667875] | 4.59 | 7.27 | – | –
S=C(N/N=C/c1ccccn1)N1CC2CCC(CC2)C1 [Compound 667885] | 8.61 | 15.62 | – | –
C=C1CC(C)(COc2ccc3c(C)cc(=O)oc3c2)OC1=O (centres unmarked) [Compound 668262] | 0.78 | 3.33 | – | –
COc1ccccc1NC(=S)N/N=C(/C)c1ccccn1 [Compound 668297] | 10.51 | 37.53 | – | –
COc1ccccc1NC(=S)N/N=C/c1ccccn1 [Compound 668298] | 11.99 | 30.06 | – | –
C/C(=N/NC(=S)Nc1ccccc1C)c1ccccn1 [Compound 668332] | 27.24 | 63.38 | – | –
C/C(=N/NC(=S)Nc1cccc(Cl)c1)c1cccc(/C(C)=N\NC(=S)Nc2cccc(Cl)c2)n1 [Compound 668484] | 1.59 | 3.57 | – | –
Oc1[nH]c2ccccc2c1N=NC(=S)N1CCCC1 [Compound 668494] | 3.76 | 13.68 | – | –
O=C1C=CC(=O)c2c1ccc1c3ccccc3n(CCCCCn3c4ccccc4c4ccc5c(c43)C(=O)C=CC5=O)c21 [Compound 668605] | 0.8 | 3.17 | – | –
S=C(NCCc1ccccn1)N/N=C/c1ccccn1 [Compound 670779] | 2.57 and 2.721 | 6.67 and 8.739 | – | –
C/C(=N/NC(=S)NC(C)(C)C)c1ccccn1 [Compound 670788] | 6.58 | 4.08 | – | –
S=C(N/N=C/c1ccccn1)Nc1ccc(Cl)cc1 [Compound 670965] | 50.7 and 44.32 | 23.32 and 25.3088 | – | –

Compound | Activity 2.5 uM | Activity 10 uM | Activity 5 uM | Effect on firefly/renilla luciferase ratio
S=C(NCc1ccccc1)N/N=C/c1ccccn1 [Compound 670969] | 1.55 | 3.644 | – | –
[CH+]=CC1([O][Sn-]([IH+])([c]2ccccc2)[c]2ccccc2)CCCCCC1 [Compound 671441] | 5.35 | – | – | –
Cc1cc[c]([Sn]([I])([O]C2(C=O)CCCCCC2)[c]2ccc(C)cc2)cc1 [Compound 671442] | 9.59 | 7.03 | – | –
CCCCCCCN1C(=O)C(O)(c2ccc(C3(O)C(=O)N(CCCCCCC)c4ccccc43)s2)c2ccccc21 (centres unmarked) [Compound 671896] | 0.85 | 4.31 | – | –
COc1ccc2nc3cccc([N+](=O)[O-])c3c(NCCCO)c2c1 [Compound 673797] | 2.54 | 4.7 | – | –
Cc1cn(C2OC(CO[Si](C)(C)C(C)(C)C)C(N(C)O[Si](C)(C)C(C)(C)C)C2[Se]c2ccccc2)c(=O)[nH]c1=O (centres unmarked) [Compound 674469] | 1.37 | 23.82 | – | –
Cc1cc(C)n(C(=C(C(Cl)=C(Cl)Cl)[N+](=O)[O-])n2nc(C)cc2C)n1 [Compound 678036] | 0.85 | 12.77 | – | –
CC(C)[Si]1(C(C)C)OCC2OC(N3C(=O)NC(=O)C[C@@H]3C(O)c3ccccc3)CC2O[Si](C(C)C)(C(C)C)O1 (some centres unmarked) [Compound 680834] | 0.76 | 4.25 | – | –
CN1/C(=C/C=C/C=C/C=C2C(=O)c3ccccc3C2=O)C(C)(C)c2ccccc21 [Compound 682512] | 0.57 | 10.02 | – | –
c1ccc(-c2ccc(N=NN3CCCC3)cc2)cc1 [Compound 687753] | – | 6.931 | 4.922 | –
C=CC(=O)N1C/C(=C\c2ccc(Cl)cc2)C(=O)/C(=C/c2ccc(Cl)cc2)C1 [Compound 687849] | 0.88 | 12.02 | – | –
CN(C)c1ccc(/C=C2\CCCCCC2=O)cc1 [Compound 689962] | – | 7.987 | 4.784 | –
Cn1/c(=N\S(=O)(=O)c2ccccc2)n(S(=O)(=O)c2ccccc2)c2ccccc21 [Compound 690404] | 1.46 | 3.03 | – | –
COc1cc(/C=C2\CCC(C)/C(=C\c3cc(OC)c(OC)c(OC)c3)C2=O)cc(OC)c1OC (centres unmarked) [Compound 690734] | 0.48 | 10.02 | – | –
FC(F)(Sc1ccccc1)c1nc2ccccc2o1 [Compound 691255] | – | 5.5705 | 3.963 | –
FC(F)(Sc1ccccn1)c1nc2ccccc2o1 [Compound 691256] | – | 5.7865 | 4.563 | –
Cn1ccnc1SC(F)(F)c1nc2ccccc2o1 [Compound 691258] | – | 3.904 | 3.891 | –
O=[N+]([O-])c1cccc(-c2cn3c(n2)Cc2ccccc2C3)c1 [Compound 693037] | – | 8.088 | 6.794 | –
COc1ccc(N=[N+]([O-])c2ccc(OC)cc2)cc1 [Compound 694092] | – | 5.898 | 4.958 | –
CO[C@@]12[C@H](COC(N)=O)C3=C(C(=O)C(C)=C(N)C3=O)N1C[C@@H]1N[C@@H]12 [mitomycin, reference compound] | – | – | – | no effect
C/C=C(/C)C(=O)O[C@H]1C(C)=C2[C@H]([C@@H]1OC(=O)CCCCCCC)[C@@](C)(OC(C)=O)C[C@H](OC(=O)CCC)[C@@]1(O)[C@H]2OC(=O)[C@@]1(C)O [thapsigargin, reference compound] | – | – | – | increase in the ratio of firefly activity relative to renilla activity
tunicamycin [reference compound] | – | – | – | increase in the ratio of firefly activity relative to renilla activity

— patent publication US9932300B2, “N,N′-diarylurea compounds and N,N′-diarylthiourea compounds as inhibitors of translation initiation” (President and Fellows of Harvard College, priority 2009, dated 2018)
